Experimental data taken from the OligoGym collection.
Oligonucleotides are given in HELM: sugar(base)linkage, 5' to 3'; d 2'-deoxyribose, r ribose, m 2'-O-methylribose, p phosphate. ss, as = sense and antisense strand

target: TMEM63B; assay: reporter assay of Huesken 2005; conditions: siRNA
Further: test concentration or dose not given here.

**Q.** With “RNA1{r(C)p.r(C)p.r(C)p.r(A)p.r(U)p.r(C)p.r(A)p.r(U)p.r(C)p.r(A)p.r(C)p.r(C)p.r(C)p.r(A)p.r(G)p.r(U)p.r(U)p.r(C)p.r(U)p.d(T)p.d(T)}|RNA2{r(A)p.r(G)p.r(A)p.r(A)p.r(C)p.r(U)p.r(G)p.r(G)p.r(G)p.r(U)p.r(G)p.r(A)p.r(U)p.r(G)p.r(A)p.r(U)p.r(G)p.r(G)p.r(G)p.d(G)p.d(T)}$$$RNA1{StrandType:ss}|RNA2{StrandType:as}$” as the substance, how does the normalised inhibition (eCFP-eYFP dual reporter) read?
**A.** 68.7%

**Q.** How did the normalised inhibition (eCFP-eYFP dual reporter) turn out when “RNA1{r(C)p.r(C)p.r(C)p.r(G)p.r(U)p.r(G)p.r(U)p.r(U)p.r(A)p.r(C)p.r(A)p.r(A)p.r(C)p.r(G)p.r(U)p.r(G)p.r(G)p.r(C)p.r(U)p.d(T)p.d(T)}|RNA2{r(A)p.r(G)p.r(C)p.r(C)p.r(A)p.r(C)p.r(G)p.r(U)p.r(U)p.r(G)p.r(U)p.r(A)p.r(A)p.r(C)p.r(A)p.r(C)p.r(G)p.r(G)p.r(G)p.d(C)p.d(G)}$$$RNA1{StrandType:ss}|RNA2{StrandType:as}$” was run?
**A.** 75.8%

**Q.** With “RNA1{r(C)p.r(C)p.r(G)p.r(C)p.r(C)p.r(G)p.r(A)p.r(G)p.r(A)p.r(G)p.r(G)p.r(C)p.r(G)p.r(C)p.r(A)p.r(A)p.r(C)p.r(G)p.r(U)p.d(T)p.d(T)}|RNA2{r(A)p.r(C)p.r(G)p.r(U)p.r(U)p.r(G)p.r(C)p.r(G)p.r(C)p.r(C)p.r(U)p.r(C)p.r(U)p.r(C)p.r(G)p.r(G)p.r(C)p.r(G)p.r(G)p.d(C)p.d(C)}$$$RNA1{StrandType:ss}|RNA2{StrandType:as}$” as the substance, how does the normalised inhibition (eCFP-eYFP dual reporter) read?
**A.** 21.8%

**Q.** “RNA1{r(C)p.r(C)p.r(G)p.r(U)p.r(G)p.r(C)p.r(A)p.r(C)p.r(U)p.r(A)p.r(C)p.r(C)p.r(U)p.r(G)p.r(U)p.r(C)p.r(C)p.r(U)p.r(U)p.d(T)p.d(T)}|RNA2{r(A)p.r(A)p.r(G)p.r(G)p.r(A)p.r(C)p.r(A)p.r(G)p.r(G)p.r(U)p.r(A)p.r(G)p.r(U)p.r(G)p.r(C)p.r(A)p.r(C)p.r(G)p.r(G)p.d(C)p.d(A)}$$$RNA1{StrandType:ss}|RNA2{StrandType:as}$” was tested. Which normalised inhibition (eCFP-eYFP dual reporter) did it give?
**A.** 86.8%

**Q.** “RNA1{r(C)p.r(C)p.r(U)p.r(A)p.r(C)p.r(A)p.r(G)p.r(C)p.r(U)p.r(U)p.r(U)p.r(G)p.r(G)p.r(G)p.r(A)p.r(G)p.r(A)p.r(A)p.r(C)p.d(T)p.d(T)}|RNA2{r(G)p.r(U)p.r(U)p.r(C)p.r(U)p.r(C)p.r(C)p.r(C)p.r(A)p.r(A)p.r(A)p.r(G)p.r(C)p.r(U)p.r(G)p.r(U)p.r(A)p.r(G)p.r(G)p.d(C)p.d(A)}$$$RNA1{StrandType:ss}|RNA2{StrandType:as}$” was tested. Which normalised inhibition (eCFP-eYFP dual reporter) did it give?
**A.** 81.9%

**Q.** With “RNA1{r(C)p.r(C)p.r(U)p.r(C)p.r(U)p.r(U)p.r(C)p.r(A)p.r(U)p.r(C)p.r(A)p.r(A)p.r(U)p.r(G)p.r(G)p.r(A)p.r(A)p.r(U)p.r(C)p.d(T)p.d(T)}|RNA2{r(G)p.r(A)p.r(U)p.r(U)p.r(C)p.r(C)p.r(A)p.r(U)p.r(U)p.r(G)p.r(A)p.r(U)p.r(G)p.r(A)p.r(A)p.r(G)p.r(A)p.r(G)p.r(G)p.d(G)p.d(T)}$$$RNA1{StrandType:ss}|RNA2{StrandType:as}$” as the substance, how does the normalised inhibition (eCFP-eYFP dual reporter) read?
**A.** 73.9%

**Q.** For “RNA1{r(C)p.r(C)p.r(U)p.r(G)p.r(A)p.r(A)p.r(G)p.r(G)p.r(A)p.r(C)p.r(U)p.r(U)p.r(C)p.r(A)p.r(A)p.r(C)p.r(G)p.r(U)p.r(G)p.d(T)p.d(T)}|RNA2{r(C)p.r(A)p.r(C)p.r(G)p.r(U)p.r(U)p.r(G)p.r(A)p.r(A)p.r(G)p.r(U)p.r(C)p.r(C)p.r(U)p.r(U)p.r(C)p.r(A)p.r(G)p.r(G)p.d(A)p.d(T)}$$$RNA1{StrandType:ss}|RNA2{StrandType:as}$”, which normalised inhibition (eCFP-eYFP dual reporter) is on record?
**A.** 84.5%

**Q.** “RNA1{r(C)p.r(C)p.r(U)p.r(G)p.r(C)p.r(U)p.r(C)p.r(A)p.r(U)p.r(G)p.r(U)p.r(A)p.r(C)p.r(A)p.r(U)p.r(G)p.r(A)p.r(U)p.r(C)p.d(T)p.d(T)}|RNA2{r(G)p.r(A)p.r(U)p.r(C)p.r(A)p.r(U)p.r(G)p.r(U)p.r(A)p.r(C)p.r(A)p.r(U)p.r(G)p.r(A)p.r(G)p.r(C)p.r(A)p.r(G)p.r(G)p.d(C)p.d(C)}$$$RNA1{StrandType:ss}|RNA2{StrandType:as}$” was tested. Which normalised inhibition (eCFP-eYFP dual reporter) did it give?
**A.** 73.1%

**Q.** For “RNA1{r(C)p.r(C)p.r(U)p.r(G)p.r(G)p.r(U)p.r(C)p.r(A)p.r(U)p.r(C)p.r(A)p.r(A)p.r(U)p.r(G)p.r(U)p.r(C)p.r(G)p.r(U)p.r(C)p.d(T)p.d(T)}|RNA2{r(G)p.r(A)p.r(C)p.r(G)p.r(A)p.r(C)p.r(A)p.r(U)p.r(U)p.r(G)p.r(A)p.r(U)p.r(G)p.r(A)p.r(C)p.r(C)p.r(A)p.r(G)p.r(G)p.d(C)p.d(A)}$$$RNA1{StrandType:ss}|RNA2{StrandType:as}$”, which normalised inhibition (eCFP-eYFP dual reporter) is on record?
**A.** 60.4%

**Q.** For “RNA1{r(C)p.r(C)p.r(U)p.r(U)p.r(C)p.r(C)p.r(A)p.r(C)p.r(A)p.r(A)p.r(U)p.r(G)p.r(A)p.r(G)p.r(A)p.r(C)p.r(U)p.r(A)p.r(U)p.d(T)p.d(T)}|RNA2{r(A)p.r(U)p.r(A)p.r(G)p.r(U)p.r(C)p.r(U)p.r(C)p.r(A)p.r(U)p.r(U)p.r(G)p.r(U)p.r(G)p.r(G)p.r(A)p.r(A)p.r(G)p.r(G)p.d(T)p.d(G)}$$$RNA1{StrandType:ss}|RNA2{StrandType:as}$”, which normalised inhibition (eCFP-eYFP dual reporter) is on record?
**A.** 72.3%

**Q.** “RNA1{r(C)p.r(C)p.r(U)p.r(U)p.r(U)p.r(G)p.r(U)p.r(C)p.r(A)p.r(C)p.r(C)p.r(U)p.r(U)p.r(C)p.r(C)p.r(A)p.r(C)p.r(A)p.r(A)p.d(T)p.d(T)}|RNA2{r(U)p.r(U)p.r(G)p.r(U)p.r(G)p.r(G)p.r(A)p.r(A)p.r(G)p.r(G)p.r(U)p.r(G)p.r(A)p.r(C)p.r(A)p.r(A)p.r(A)p.r(G)p.r(G)p.d(C)p.d(C)}$$$RNA1{StrandType:ss}|RNA2{StrandType:as}$” was tested. Which normalised inhibition (eCFP-eYFP dual reporter) did it give?
**A.** 74.2%

**Q.** How did the normalised inhibition (eCFP-eYFP dual reporter) turn out when “RNA1{r(C)p.r(G)p.r(A)p.r(G)p.r(G)p.r(C)p.r(U)p.r(G)p.r(U)p.r(G)p.r(A)p.r(G)p.r(C)p.r(A)p.r(G)p.r(G)p.r(U)p.r(G)p.r(G)p.d(T)p.d(T)}|RNA2{r(C)p.r(C)p.r(A)p.r(C)p.r(C)p.r(U)p.r(G)p.r(C)p.r(U)p.r(C)p.r(A)p.r(C)p.r(A)p.r(G)p.r(C)p.r(C)p.r(U)p.r(C)p.r(G)p.d(C)p.d(A)}$$$RNA1{StrandType:ss}|RNA2{StrandType:as}$” was run?
**A.** 42.2%

**Q.** How did the normalised inhibition (eCFP-eYFP dual reporter) turn out when “RNA1{r(C)p.r(G)p.r(A)p.r(U)p.r(G)p.r(C)p.r(A)p.r(G)p.r(A)p.r(G)p.r(A)p.r(G)p.r(G)p.r(A)p.r(A)p.r(G)p.r(A)p.r(A)p.r(G)p.d(T)p.d(T)}|RNA2{r(C)p.r(U)p.r(U)p.r(C)p.r(U)p.r(U)p.r(C)p.r(C)p.r(U)p.r(C)p.r(U)p.r(C)p.r(U)p.r(G)p.r(C)p.r(A)p.r(U)p.r(C)p.r(G)p.d(A)p.d(G)}$$$RNA1{StrandType:ss}|RNA2{StrandType:as}$” was run?
**A.** 56.4%

**Q.** Which normalised inhibition (eCFP-eYFP dual reporter) does the source give for “RNA1{r(C)p.r(G)p.r(C)p.r(A)p.r(U)p.r(C)p.r(C)p.r(C)p.r(A)p.r(G)p.r(G)p.r(C)p.r(C)p.r(U)p.r(G)p.r(C)p.r(U)p.r(C)p.r(A)p.d(T)p.d(T)}|RNA2{r(U)p.r(G)p.r(A)p.r(G)p.r(C)p.r(A)p.r(G)p.r(G)p.r(C)p.r(C)p.r(U)p.r(G)p.r(G)p.r(G)p.r(A)p.r(U)p.r(G)p.r(C)p.r(G)p.d(C)p.d(A)}$$$RNA1{StrandType:ss}|RNA2{StrandType:as}$” here?
**A.** 74.9%

**Q.** “RNA1{r(C)p.r(G)p.r(C)p.r(C)p.r(C)p.r(U)p.r(C)p.r(A)p.r(C)p.r(G)p.r(G)p.r(A)p.r(C)p.r(A)p.r(C)p.r(A)p.r(G)p.r(A)p.r(C)p.d(T)p.d(T)}|RNA2{r(G)p.r(U)p.r(C)p.r(U)p.r(G)p.r(U)p.r(G)p.r(U)p.r(C)p.r(C)p.r(G)p.r(U)p.r(G)p.r(A)p.r(G)p.r(G)p.r(G)p.r(C)p.r(G)p.d(T)p.d(C)}$$$RNA1{StrandType:ss}|RNA2{StrandType:as}$” was tested. Which normalised inhibition (eCFP-eYFP dual reporter) did it give?
**A.** 59.1%

**Q.** How did the normalised inhibition (eCFP-eYFP dual reporter) turn out when “RNA1{r(C)p.r(G)p.r(C)p.r(U)p.r(A)p.r(C)p.r(A)p.r(A)p.r(G)p.r(G)p.r(A)p.r(G)p.r(G)p.r(A)p.r(U)p.r(G)p.r(A)p.r(U)p.r(C)p.d(T)p.d(T)}|RNA2{r(G)p.r(A)p.r(U)p.r(C)p.r(A)p.r(U)p.r(C)p.r(C)p.r(U)p.r(C)p.r(C)p.r(U)p.r(U)p.r(G)p.r(U)p.r(A)p.r(G)p.r(C)p.r(G)p.d(C)p.d(A)}$$$RNA1{StrandType:ss}|RNA2{StrandType:as}$” was run?
**A.** 79.3%

**Q.** Which normalised inhibition (eCFP-eYFP dual reporter) does the source give for “RNA1{r(C)p.r(G)p.r(C)p.r(U)p.r(C)p.r(A)p.r(G)p.r(G)p.r(U)p.r(G)p.r(C)p.r(U)p.r(G)p.r(C)p.r(A)p.r(G)p.r(G)p.r(A)p.r(C)p.d(T)p.d(T)}|RNA2{r(G)p.r(U)p.r(C)p.r(C)p.r(U)p.r(G)p.r(C)p.r(A)p.r(G)p.r(C)p.r(A)p.r(C)p.r(C)p.r(U)p.r(G)p.r(A)p.r(G)p.r(C)p.r(G)p.d(A)p.d(T)}$$$RNA1{StrandType:ss}|RNA2{StrandType:as}$” here?
**A.** 46.2%

**Q.** Which normalised inhibition (eCFP-eYFP dual reporter) does the source give for “RNA1{r(C)p.r(G)p.r(G)p.r(C)p.r(C)p.r(G)p.r(C)p.r(C)p.r(G)p.r(A)p.r(G)p.r(A)p.r(G)p.r(G)p.r(C)p.r(G)p.r(C)p.r(A)p.r(A)p.d(T)p.d(T)}|RNA2{r(U)p.r(U)p.r(G)p.r(C)p.r(G)p.r(C)p.r(C)p.r(U)p.r(C)p.r(U)p.r(C)p.r(G)p.r(G)p.r(C)p.r(G)p.r(G)p.r(C)p.r(C)p.r(G)p.d(A)p.d(G)}$$$RNA1{StrandType:ss}|RNA2{StrandType:as}$” here?
**A.** 72.9%

**Q.** How did the normalised inhibition (eCFP-eYFP dual reporter) turn out when “RNA1{r(C)p.r(G)p.r(U)p.r(G)p.r(U)p.r(G)p.r(U)p.r(A)p.r(A)p.r(A)p.r(U)p.r(G)p.r(C)p.r(C)p.r(A)p.r(G)p.r(G)p.r(G)p.r(C)p.d(T)p.d(T)}|RNA2{r(G)p.r(C)p.r(C)p.r(C)p.r(U)p.r(G)p.r(G)p.r(C)p.r(A)p.r(U)p.r(U)p.r(U)p.r(A)p.r(C)p.r(A)p.r(C)p.r(A)p.r(C)p.r(G)p.d(T)p.d(T)}$$$RNA1{StrandType:ss}|RNA2{StrandType:as}$” was run?
**A.** 52.1%

**Q.** “RNA1{r(C)p.r(G)p.r(U)p.r(G)p.r(U)p.r(U)p.r(A)p.r(C)p.r(A)p.r(A)p.r(C)p.r(G)p.r(U)p.r(G)p.r(G)p.r(C)p.r(U)p.r(C)p.r(G)p.d(T)p.d(T)}|RNA2{r(C)p.r(G)p.r(A)p.r(G)p.r(C)p.r(C)p.r(A)p.r(C)p.r(G)p.r(U)p.r(U)p.r(G)p.r(U)p.r(A)p.r(A)p.r(C)p.r(A)p.r(C)p.r(G)p.d(G)p.d(G)}$$$RNA1{StrandType:ss}|RNA2{StrandType:as}$” was tested. Which normalised inhibition (eCFP-eYFP dual reporter) did it give?
**A.** 91.6%
